Measured values reported in patent publication WO2009115235A1, “Pde inhibitors for the treatment of pulmonary hypertension” (Bayer Schering Pharma AG, priority 2008, dated 2009).

Experiments:
[1] = test system: isolated rat pulmonary vessels; experiment: Relaxation of isolated small pulmonary arteries precontracted with norepinephrine (organ bath / vessel myograph); design: species or system rat (male Wistar); settings: comparison of vardenafil, sildenafil and tadalafil
conscious Beagle dogs = experiment: Measurement of Pulmonary Artery Pressure in conscious telemetric Beagle dogs; format: in vivo, dog (male Beagle); settings: for lowering of pulmonary artery pressure (in words): conscious dogs; for reduction of U44096-induced PH (pulmonary artery pressure): conscious Beagle dogs, significant

Structure (SMILES): CCCc1nc(C)c2c(=O)[nH]c(-c3cc(S(=O)(=O)N4CCN(CC)CC4)ccc3OCC)nn12 [Vardenafil, vardenafil]
- relaxation of rat pulmonary vessels (ranking of PDE5 inhibitors) [1]: most prominent
- relaxation of rat pulmonary vessels (ranking of PDE5 inhibitors) ([1]; listed as vardenafil): relaxed pulmonary vessels of rat more potently then the PDE5 inhibitors sildenafil and tadalafil
- decrease of pulmonary artery pressure, inhaled vs oral (in words) (conscious Beagle dogs; inhalation compared with oral application, conscious dogs with telemetric implant): more potently decreased pulmonary artery pressure then Vardenafil applied orally
- lowering of pulmonary artery pressure (in words) (conscious Beagle dogs; inhalation, 30μg/kg, compared with 10-fold higher oral dose): could lower pulmonary artery pressure as significantly as with the 10-fold higher oral dose
- reduction of U44096-induced PH (pulmonary artery pressure) (conscious Beagle dogs; inhaled, 30μg/kg nebulized within 10 minutes): 30%
- duration of the decrease of the pulmonary artery pressure (conscious Beagle dogs; inhaled, 30μg/kg/10 min, whole observation period 3 hours): ≥ 3 h
- reduction of U44096-induced PH (pulmonary artery pressure) (conscious Beagle dogs; oral, 300μg/kg): 30%
- lowering of pulmonary artery pressure (in words) (conscious Beagle dogs; oral, 300μg/kg): significantly lowered pulmonary artery pressure
